Biological target: T1, uterine OT receptors (Rattus norvegicus, UniProt P70536)
T1 construct: crude membrane preparation of uteri; from tissue; host or cells: uterus of DES-treated rats, crude membranes
T1 sequence (P70536 1-388): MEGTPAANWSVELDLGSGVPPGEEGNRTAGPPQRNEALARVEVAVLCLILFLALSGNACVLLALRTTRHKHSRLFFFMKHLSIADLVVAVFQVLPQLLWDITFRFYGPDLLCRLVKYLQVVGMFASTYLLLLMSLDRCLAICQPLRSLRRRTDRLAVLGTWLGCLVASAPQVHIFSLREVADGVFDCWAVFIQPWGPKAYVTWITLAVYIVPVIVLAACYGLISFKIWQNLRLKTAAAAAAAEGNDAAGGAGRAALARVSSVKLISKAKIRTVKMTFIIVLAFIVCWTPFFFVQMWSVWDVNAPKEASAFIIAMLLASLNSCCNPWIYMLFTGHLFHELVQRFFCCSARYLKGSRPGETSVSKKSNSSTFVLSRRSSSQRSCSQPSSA
Test: Radioligand binding: competition of [^3 H]oxytocin binding to rat uterine membranes
Settings: 1 nM [^3 H]OT, rat uterus membranes, 60 minutes, 22° C., pH 7.4; read-out: IC50
Excerpt: RADIOGLIGAND BINDING ASSAYS
The high affinity binding of [^3 H]

| SMILES | IC50 |
| --- | --- |
| COC(=O)CCN1CCCC(C(=O)NCC(C)C2(O)CC3CCC2(CS(=O)(=O)N2CCN(c4ccccc4C)CC2)C3(C)C)C1 (stereo not shown) [Example 84] | 25 nM |
| CCOC(=O)CCN1CCCC1C(=O)NC1C(C(=O)N2CCN(c3ccccc3C)CC2)C2CCC1(C)C2(C)C (stereo not shown) [Example 16] | 27 nM |
| Cc1ccccc1N1CCN(S(=O)(=O)C[C@]23CC[C@H](C[C@]2(O)C(C)CN)C3(C)C)CC1 (stereo partly shown) [Example 39] | 180 nM |
| CCOC(=O)CN1CCCC(C(=O)NCC(C)C2(O)CC3CCC2(CS(=O)(=O)N2CCN(c4ccccc4C)CC2)C3(C)C)C1 (stereo not drawn) [Example 86, 1-((7,7-Dimethyl-2-exo-hydroxy-2-endo-2-(1-(3-(1-ethoxycarbonylmethyl)piperidinylcar-bonyl)amino)propyl-bicyclo(2.2.1)heptan-1-yl)methanesulfonyl)-4-(2-methylphenyl)piperazine] | 38 nM |
| Cc1ccccc1N1CCN(S(=O)(=O)C[C@]23CC[C@H](CC2=O)C3(C)C)CC1 [Example 37, 1-((7,7-Dimethyl-2-oxo-bicyclo(2.2.1)heptan-1-yl)methanesulfonyl)-4-(2-methylphenyl)piperazine] | 1000 nM |
| Cc1ccccc1N1CCN(C(=O)C2C3CCC(C)(C2NC(=O)C(N)C(C)O)C3(C)C)CC1 (stereo not shown) [Example 20, 1-(2-methylphenyl)-4-[(4,7,7-trimethyl-3-(2-amino-3-hydroxy)butyrylaminobicyclo[2.2.1]hept-2-yl)carbonyl]-piperazine] | 3.6 nM |
| COC(=O)C1CC2CCC1(CS(=O)(=O)N1CCN(c3ccccc3C)CC1)C2(C)C (stereo not drawn) [Example 59, 1-((7,7-Dimethyl-2-endo-methoxycarbonyl-bicyclo-(2.2.1)heptan-1-yl)methanesulfonyl)-4-(2-methyl-phenyl)piperazine] | 260 nM |
| Cc1ccccc1N1CCN(S(=O)(=O)CC23CCC(CC2(O)C(C)CNC(=O)[C@@H]2CCCN2CC(=O)O)C3(C)C)CC1 (stereo partly shown) [Example 89] | 14 nM |
| Cc1ccccc1N1CCN(C(=O)C2C(=NO)C3(C)CCC2C3(C)C)CC1 (stereo not drawn) [Example 6, 1-(2-methylphenyl)-4-[(4,7,7-trimethyl-3-hydroxyimino-bicyclo[2.2.1]-hept-2-endo-yl)carbonyl]-piperazine] | 82 nM |
| Cc1ccccc1N1CCN(S(=O)(=O)CC23CCC(CC2(O)C(C)CNC(=O)[C@@H]2CCCN2CCC(=O)O)C3(C)C)CC1 (stereo partly drawn) [Example 82, 1-((7,7-Dimethyl-2-exo-hydroxy-2-endo-2-(1-(1-N-(carboxyethyl)prolyl)amino)propyl-bicyclo(2.2.1)-heptan-1-yl)methanesulfonyl)-4-(2-methylphenyl)piperazine] | 15 nM |
| Cc1ccccc1N1CCN(S(=O)(=O)C[C@]23CC[C@H](C[C@]2(O)C(C)CNC(=O)Cc2c[nH]cn2)C3(C)C)CC1 (stereo partly drawn) [Example 43, 1-((7,7-Dimethyl-2-exo-hydroxy-2-endo-2-(1-(4(5)-imidazolylacetyl)amino)propyl-bicyclo(2.2.1)heptan-1-yl)methanesulfonyl)-4-(2-methylphenyl)piperazine] | 8 nM |
| Cc1ccccc1N1CCN(C(=O)C2C3CCC(C)(C2O)C3(C)C)CC1 (stereo not shown) [Example 2, 1-[(3-hydroxy-4,7,7-trimethylbicyclo[2.2.1]hept-2-yl)carbonyl]-4-(2-methylphenyl)-piperazine] | 800 nM |
| Cc1ccccc1N1CCN(C(=O)C2C3CCC(C)(C2NC(=O)C(O)CO)C3(C)C)CC1 (stereo not shown) [Example 18, 1-(2-methylphenyl)-4-[(4,7,7-trimethyl-3-(2,3-dihydroxy)propionylaminobicyclo[2.2.1]hept-2-yl)carbonyl]-piperazine] | 120 nM |
| Cc1ccccc1N1CCN(S(=O)(=O)CC23CCC(CC2NC(=O)[C@H](CCS(C)(=O)=O)NC(=O)OC(C)(C)C)C3(C)C)CC1 (stereo partly drawn) [Example 71, 1-((7,7-Dimethyl-2-endo-(2S-(tert-butyloxycarbonyl-amino)-4-(methylsulfonyl)-butyramido)-bicyclo(2.2.1)-heptan-1-yl)methanesulfonyl)-4-(2-methylphenyl)-piperazine] | 7.7 nM |
| Cc1ccccc1N1CCN(C(=O)C2C3CCC(C)(C2NC(=O)Cc2c[nH]cn2)C3(C)C)CC1 (stereo not shown) [Example 13, 1-(2-Methylphenyl)-4-[(4,7,7-trimethyl-3-(2-(4-imidazolyl))acetylaminobicyclo[2.21]hept-2-yl)carbonyl]-piperazine] | 33.3 nM |
| CCOC(=O)CN1CCC[C@H]1C(=O)NCC(C)C1(O)CC2CCC1(CS(=O)(=O)N1CCN(c3ccccc3C)CC1)C2(C)C (stereo partly drawn) [Example 88, 1-((7,7-Dimethyl-2-exo-hydroxy-2-endo-2-(1-(1-N -(ethoxycarboxymethyl)-prolyl)amino)propyl-bicyclo-(2.2.1)heptan-1-yl)methanesulfonyl)-4-(2-methylphenyl)piperazine] | 28 nM |
| Cc1ccccc1N1CCN(C(=O)C2C3CCC(C)(C2NC(=O)C(C)(C)O)C3(C)C)CC1 (stereo not shown) [Example 17] | 16 nM |
| Cc1ccccc1N1CCN(S(=O)(=O)CC23CCC(CC2NC(=O)[C@@H](N)CCS(C)(=O)=O)C3(C)C)CC1 (stereo partly drawn) [Example 72, 1-((7,7-Dimethyl-2-endo-(2S-amino-4-(methylsulfonyl)-butyramido)bicyclo(2.2.1)heptan-1-yl)methanesulfonyl)-4-(2-methylphenyl)piperazine] | 1.2 nM |
| Cc1ccccc1N1CCN(S(=O)(=O)CC23CCC(CC2O)C3(C)C)C(C)C1 (stereo not drawn) [Example 68, 1-((7,7-Dimethyl-2-exo-hydroxy-bicyclo(2.2.1)heptan-1-yl)methanesulfonyl)-4-(2-methylphenyl)-2-methyl-piperazine] | 460 nM |
| Cc1ccccc1N1CCN(S(=O)(=O)C[C@]23CC[C@H](C[C@]2(O)C(C)CNC(=O)[C@@H]2CCCN2)C3(C)C)CC1 (stereo partly drawn) [Example 40, 1-((7,7-Dimethyl-2-exo-hydroxy-2-endo-2-(1-(1-prolyl)-amino)propylbicyclo(2.2.1)heptan-1-yl)methanesulfonyl)-4-(2-methylphenyl)piperazine] | 34 nM |
| Cc1ccccc1N1CCN(S(=O)(=O)CC23CCC(C=C2C(=O)NCCc2c[nH]cn2)C3(C)C)CC1 (stereo not shown) [Example 58, 1-((7,7-Dimethyl-2-(4-imidazolyl)ethylaminocarbonyl-bicyclo(2.2.1)hept-2-en-1-yl)methanesulfonyl)-4-(2-methylphenyl)piperazine] | 120 nM |

Same assay, conditions: IC50, 1 nM [^3 H]OT, rat uterus membranes, 60 minutes, 22° C., pH 7.4

| SMILES | IC50 |
| --- | --- |
| Cc1ccccc1N1CCN(S(=O)(=O)C[C@]23CC[C@H](C[C@]2(O)C(C)CNC(=O)C2CN4CCC2CC4)C3(C)C)CC1 (stereo partly drawn) [Example 44, 1-((7,7-Dimethyl-2-exo-hydroxy-2-endo-2-(1-(quinuclidin-3-yl-carbonyl)amino)propyl-bicyclo(2.2.1)heptan-1-yl)methanesulfonyl)-4-(2-methylphenyl)piperazine] | 18 nM |

Same assay, conditions: read-out: % inhibition at 100 nM

| SMILES | inhibition at 0.1 µM |
| --- | --- |
| Cc1ccccc1N1CCN(S(=O)(=O)CC23CCC(CC2(O)C(C)CNC(=O)C2CCCN(CCC(=O)O)C2)C3(C)C)CC1 (stereo not shown) [Example 85] | 66% |
| Cc1ccccc1N1CCN(S(=O)(=O)CC23CCC(CC2(O)C(C)CNCc2ccncc2)C3(C)C)CC1 (stereo not drawn) [Example 63, 1-((7,7-Dimethyl-2-exo-hydroxy-2-endo-2-(1-(4-pyridinyl)methylamino)-propyl-bicyclo(2.2.1)heptan-1-yl)methanesulfonyl)-4-(2-methylphenyl)-piperazine] | 35% |
| Cc1ccccc1N1CCN(S(=O)(=O)CC23CCC(CC2N)C3(C)C)CC1 (stereo not drawn) [Example 70, 1-((7,7-Dimethyl-2-endo-amino-bicyclo(2.2.1)heptan-1-yl)methanesulfonyl)-4-(2-methylphenyl)-piperazine] | 91% |

Same assay, conditions: read-out: % inhibition at 1000 nM

| SMILES | inhibition at 1 µM |
| --- | --- |
| Cc1ccccc1N1CCN(S(=O)(=O)C[C@]23CC[C@H](CC2=CCNC(=O)Cc2c[nH]cn2)C3(C)C)CC1 [Example 53, 1-((7,7-dimethyl-2-(2-(4(5)-imidazolylacetyl)amino)-ethylidine-bicyclo(2.2.1)heptan-1-yl)methane-sulfonyl)-4-(2-methylphenyl)piperazine] | 75% |
| Cc1ccccc1N1CCN(S(=O)(=O)CC23CCC(CC2NC(=O)OCc2ccccc2)C3(C)C)CC1 (stereo not drawn) [Example 75, 1-((7,7-Dimethyl-2-endo-benzyloxycarbonylamino-bicyclo(2.2.1)heptan-1-yl)methanesulfonyl)-4-(2-methyl-phenyl)-piperazine] | 35% |
| Cc1ccccc1N1CCN(C(=O)C2C3CCC(C)(C2NC(=O)C(N)CCS(C)(=O)=O)C3(C)C)CC1 (stereo not drawn) [Example 10, 1-(2-methylphenyl)-4-[(4,7,7-trimethyl-3-exo-(4-methylsulfonyl-2-amino)butanoylaminobicyclo[2.2.1]hept-2-endo-yl)carbonyl]-piperazine] | 75% |
| Cc1ccccc1N1CCN(S(=O)(=O)CC23CCC(CC24CO4)C3(C)C)CC1 (single isomer, unassigned) [Example 54, 1-((7,7-Dimethyl-2-spiro-epoxy-bicyclo(2.2.1)heptan-1-yl)methanesulfonyl)-4-(2-methylphenyl)piperazine] | 31% |
| Cc1ccccc1N1CCN(S(=O)(=O)CC23CCC(CC2=O)C3(C)C)C(C)C1=O (stereo not shown) [Example 67, 1-((7,7-Dimethyl-2-oxo-bicyclo(2.2.1)heptan-1-yl)-methanesulfonyl)-4-(2-methylphenyl)-2-methyl-3-piperazinone] | 37% |

Same assay, conditions: read-out: % inhibition at 10,000 nM

| SMILES | inhibition at 10 µM |
| --- | --- |
| Cc1ccccc1N1CCN(S(=O)(=O)CC23CCC(CC2=O)C3(C)C)CC1=O (stereo not shown) [Example 66, 1-((7,7-Dimethyl-2-oxo-bicyclo(2.2.1)heptan-1-yl)methanesulfonyl)-4-(2-methylphenyl)-3-piperazinone] | 5% |

From patent publication US5686454A, “Camphorcarbonyl” (Merck & Co., Inc., priority 1996, dated 1997)
